Measured values taken from patent US20160256452A1 (Develco Pharma Schweiz AG, priority 2015, published 2016).
Where a name gives a salt, the structure may show the parent alone.

Key:
[1] = test system: loperamide-induced experimental constipation; test: Colon transit time (CTT), difference of WGT and OCT, loperamide-induced experimental constipation; assay type: in vivo, human; conditions: for colon transit time after pre-treatment with loperamide: all 15 subjects
Experimental: (§1) Pharmacokinetics of methylnaltrexone and its effects on loperamid-induced experimental constipation were evaluated in a randomized, controlled, five-period, cross-over study with 7 days wash-out between the study periods. […] The time of methylnaltrexone administration was defined to be time zero. For control of intestinal transit times in absence of loperamide and methylnaltrexone, 200 ml of pure apple juice and a methylnaltrexone placebo capsule were given at the respective times (Control). […] Oro-cecal transit time (OCT) was assessed using the sulfasalazine/sulfapyridine method. For that, 500 mg immediate-release sulfasalazine (Azulfidine®, Pharmacia, Germany) were swallowed with 200 ml table water 2 h after administration of the respective methylnaltrexone study medication to avoid competitive interactions during absorption. The time of first appearance of sulfapyridine in serum was defined to be the OCT (cut-off: 100 μg/ml serum). Whole gut transit time (WGT) was evaluated using a radio-opaque marker method. For that, Colon Transit' capsules (Medical Instruments Corporation GmbH, Herford, Germany) were swallowed 24, 12 and 1 h before time zero using the 200 ml apple juice for loperamide dosing. Each capsule contains 10 radio-opaque markers of identical shape (e.g. triangles). A Colon Transit™ batch consists of capsules with markers of different shape (e.g. triangles, circles, rings etc.). Our subjects were willing and compliant for sampling stool in single portions immediately after feeling urge without suppressing defecation using tightly closable containers. Then, the number of radio-opaque markers with identical shape was counted in the stool portions after X-ray imaging (Philips Optimus, Philips Healthcare, Hamburg, Germany) using the Agfa PACS Workstation Impact-Version 5.2 (Agfa-Healthcare, Cologne, Germany). From the time of administration of the 3×10 radio-opaque markers (3 Colon Transit™ capsules) and the time of their appearance in different stool portions could be reliably concluded on WGT as described below. Colon transit time (CTT) was derived from the difference of WGT and OCT.
The CTT was evaluated from the difference of WGT and OCT.

[2] = test system: loperamide-induced experimental constipation; test: Whole gut transit time (WGT), radio-opaque marker method, loperamide-induced experimental constipation; assay type: in vivo, human
Experimental: (§2) All subjects were in good health as confirmed by medical histories, physical examination, routine clinical-chemical and hematologic screenings and 12-lead ECG. Three female subjects took hormonal contraceptives regularly and one subject took 300 mg ibuprofen to treat headache 4 days before the administration of study medication. Three subjects were smokers of less than 10 cigarettes per day. 14 subjects drank alcohol occasionally. All were negative in the pre-study screenings for alcohol, drugs, hepatitis-B-virus (HBV) and hepatitis-C-virus (HCV) and human immunodeficiency virus (HIV). Before administration of the study medication, female subjects were screened to be not pregnant and to apply a safe method of contraception. […] All participants provided informed written consent before inclusion into the study.
as §1, with “Our subjects were willing and compliant for sampling stool in single portions immediately after feeling urge without suppressing defecation using tightly closable containers.” left out
Intestinal transit times: Oro-cecal transit time (OCT) was defined as the time span between oral administration of sulfasalazine (500 mg immediate-release tablet) and the appearance of its metabolite sulfapyridine in serum (cut-off=100 μg/ml) which is generated in the cecum by bacterial azo-reduction. Whole-gut transit time (WGT) was assessed by counting the radio-opaque markers with different shapes (Colon Transit™) in the feces according to formula (1) : […]
with δ1-3 as derived by formula (2):
[formula] • δt =mouth to stool transit time of markers type 1, 2, 3 • xi=number of markers type 1, 2, 3 counted at time ti • n=total number of stools

[3] = test system: loperamide-induced experimental constipation; test: Oro-cecal transit time (OCT), sulfasalazine/sulfapyridine method, loperamide-induced experimental constipation; assay type: in vivo, human
Experimental: as §2, with “The clinical study was performed in 15 German white subjects (11 males, 4 females, age 20-34 years, body mass index 20.3-27.0 kg/ m^2). All subjects” for “All subjects”, “the study. The study was approved by the Independent Ethics Committee of the University Medicine Greifswald and by the German Federal Institute for Drugs and Medical Devices (BfArM) and was registered by EudraCT (2009-014357-32) and ClinicalTrials.gov (NCT01596777).” for “the study.”
as §1
For supervised pretreatment with loperamide and Colon Transit™ (mouth checking) and for providing stool samples, the subjects visited the study unit. […]

[4] = cited from earlier work
[5] = 12 LOP-responders, Control versus LOP
[6] = 12 LOP-responders, Control versus LOP, range
[7] = mean ± SD, 12 LOP-responders, loperamide 4 mg 24, 12, 1 h before and 12 h after placebo capsules

CN(C)C(=O)C(CCN1CCC(O)(c2ccc(Cl)cc2)CC1)(c1ccccc1)c1ccccc1 [LOP, loperamide hydrochloride]
prolongation of the CTT (mean ± SD) [1, 5]: 34.8 ± 18.3 h
prolongation of the CTT (range) [1, 6]: 18.3 to 73.6 h
colon transit time after pre-treatment with loperamide [1]: 66.0 ± 20.9 h
colon transit time after pre-treatment with loperamide ([1]; range): 33.9 to 110 h
CTT [1, 7]: 70.3 ± 19.4 h
WGT extended by (mean ± SD) [2, 5]: 37.8 ± 19.1 h
WGT extended by (range) [2, 6]: 20.6 to 74.1 h
WGT after pre-treatment with loperamide (mean ± SD) ([2]; all 15 subjects): 73.4 ± 19.9 h
WGT elevation versus Control ([2]; all 15 subjects): about 1.8 fold
WGT after pre-treatment with loperamide (range) ([2]; all 15 subjects, range): 45.9 to 114 h
WGT [2, 7]: 77.3 ± 19.6 h
prolongation of the OCT (mean ± SD) [3, 5]: 3.08 ± 3.30 h
prolongation of the OCT (range) [3, 6]: 0.50 to 10.5 h
OCT after pre-treatment with loperamide (mean ± SD) ([3]; all 15 subjects): 7.4 ± 3.7 h
OCT after pre-treatment with loperamide (range) ([3]; all 15 subjects, range): 4.0 to 14.0 h
OCT [3, 7]: 7.00 ± 3.55 h

C[N@+]1(CC2CC2)CC[C@]23c4c5ccc(O)c4O[C@H]2C(=O)CC[C@@]3(O)[C@H]1C5 [methylnaltrexone, N-methylnaltrexone bromide]
time of peak concentrations ([4]; following subcutaneous administration): approximately 0.5 hours
crossing of the human blood-brain barrier ([4]; in vivo): does not cross
eliminated without being metabolised ([4]; in vivo): 85 % of the administered dose
proportion that binds to plasma proteins ([4]; in vivo): 11-15%
steady-state volume of distribution ([4]; in vivo): 1.1 L/kg
terminal half-life ([4]; in vivo): about 8 hours
Accumulation ([4]; intravenous administration every 6 hours): has not been observed
excreted in urine ([4]; share of the dose): Approximately half of the dose
